How the values were obtained:
[1] = test system: BJ fibroblasts; assay: Induction of multipolar mitotic spindles (immunofluorescence); type: cell-based, human; settings: 24 hours
Experimental: (§1) All cell lines (BJ fibroblasts (available from ATCC), SCC114 (18), HeLa (ATCC), MCF7 (ATCC), N115 and U2OS (ATCC) were cultured in Dulbecco's modified Eagle's Medium (DMEM, PAA Laboratories, Pasching, Germany) supplemented with 10% FCS (PAA), 20 U/ml penicillin and 20 μg/ml streptomycin (Biochrom, Berlin, Germany) at 37° C., 5% CO2. SCC114-D1 cells stably expressing GFP-α-tubulin were generated by transfection (Fugene 6, Roche Diagnostics, Mannheim, Germany) of the transgene in pEGFP-C1 (Clontech, Heidelberg, Germany) and maintained under selective pressure by addition of geniticin (Gibco, Invitrogen, Karlsruhe, Germany) into complete medium at a concentration of […]. When indicated, griseofulvin (Sigma, Deisenhofen, Germany) was added to culture medium at several concentrations (0-100 μM), and incubation was continued for 24-72 h. Griseofulvin was dissolved in DMSO (Sigma); the final DMSO concentration in all experiments was 0.1%.
(§2) Cells grown on glass coverslips were fixed in −20° C. methanol/acetone (1:1) for 7 min. After blocking non-specific sites with 10% goat serum (Sigma)/PBS for 5 min, the cells were incubated with primary antibodies for 1 h. Unlabelled antibodies were used at following dilutions: mouse monoclonal antibody to Eg5, 1:500 (Transduction Laboratories, Lexington, Ky.); mouse monoclonal antibody to γ-tubulin (GTU-88) at 1:300, rabbit polyclonal antibody to γ-tubulin at 1:100, and mouse monoclonal antibody to α-tubulin at 1:500 (Sigma, Deisenhofen, Germany); rabbit anti-phospho-histone H3, 1:500 (Upstate Biotechnology, Lake Placid, N.Y.); mouse monoclonal antibody to dynein, 1:50 (Chemicon International, Hampshire, UK); mouse monoclonal antibody to NuMA, 1:50 (Calbiochem, Darmstadt, Germany). Coverslips were then washed three times with PBS and incubated with secondary antibodies for 25 min before adding DAPI to a final concentration of 0.1 μg/ml (Sigma) to the antibody dilution for additional 5 min. The following fluorchrome-conjugated secondary antibodies were used: rabbit Alexa 488, 1:1000 (Molecular Probes, Invitrogen, Karlsruhe, Germany) and mouse Cy3, 1:400 (Jackson ImmunoResearch Laboratories, West Grove, PN). Coverslips were washed three times with PBS, rinsed shortly with water and post-fixed in absolute ethanol for 1 min. Airdryed Coverslips were embedded in Vectashield (Vector Laboratories, Burlingame, Calif.) or Fluoromount G (Southern Biotech, Birmingham, Ala.). Immunostained cells were examined using a Zeiss Axiovert 200 M fluorescence microscope (Göttingen, Germany) and images were processed with Photoshop (Adobe, München, Germany) software.

[2] = test system: HeLa cells; assay: as above; type: cell-based, human; settings: 100 μM griseofulvin, 24 hours
Experimental: as §1, §2

[3] = test system: MCF7 cells; assay: as above; type: cell-based, human; settings: 24 hours
Experimental: as §1, §2

[4] = test system: SCC114 cells; assay: as above; type: cell-based, human; settings: SCC114, 20 μM griseofulvin, 24 hours
Experimental: as §1, §2

[5] = test system: U2OS cells; assay: as above; type: cell-based, human; settings: 100 μM griseofulvin, 24 hours
Experimental: as §1, §2

[6] = test system: BJ fibroblasts; assay: G2/M cell cycle arrest, propidium iodide flow cytometry; type: cell-based, human; settings: 20 μM griseofulvin, 24 hours
Experimental: (§3) Cells were plated in 6-well plates (Greiner Bio-One, Kremsmuenster; Austria), treated 24 h later with different concentrations of griseofulvin and incubated for 24 h. Both attached and unattached cells were harvested and washed with PBS. For cell cycle, analysis cells were fixed in −20° C. methanol (70%) for at least 45 min. Cells were then washed with PBS and incubated in propidiumodide buffer containing 0.01 mg/ml propidiumiodide (Molecular Probes) and 0.25 mg/ml RNase A (Roth, Karlsruhe, Germany) for 30 min. For the histone H3-assay, cells were fixed in 70% ethanol, incubated with 0.25% Triton X-100/PBS for 15 min on ice, and stained with rabbit antibody to phospho-histone H3 (1:500; Upstate Biotechnology) for 2 h at room temperature, followed by 1 h of incubation with Alexa 488 conjugated anti-rabbit IgG (1:1000; Molecular Probes). DNA was counterstained with propidiumiodide buffer (see above) for 30 minutes at 37° C. Cells were analyzed with a FACScan flow cytometer (Becton Dickinson, Heidelberg, Germany) using CellQuest Software.

[7] = test system: HeLa cells; assay: as above; type: cell-based, human; settings: 20 μM griseofulvin, 24 hours
Experimental: as §3

[8] = test system: SCC114 cells; assay: as above; type: cell-based, human; settings: SCC114, 20 μM griseofulvin, 24 hours
Experimental: as §3

[9] = test system: BJ fibroblasts; assay: Mitotic cells by phospho-histone H3 two-parameter flow cytometry; type: cell-based, human; settings: 35 μM griseofulvin, 24 hours (4.1% prior to treatment)
Experimental: as §3

[10] = test system: SCC114 cells; assay: as above; type: cell-based, human; settings: SCC114, 35 μM griseofulvin, 24 hours (29.1% prior to treatment)
Experimental: as §3

[11] = Colorimetric MTT cytotoxicity assay; type: cell-based; settings: human, SCC114 cells, SCC114, 0-100 μM, read-out: IC50 cytotoxicity / half-maximal inhibition of cell growth
Experimental: (§4) The cytotoxicity assay was performed as previously described (53). Briefly, MTT (Thiazolyl Blue Tetrazolium Blue; Sigma) was dissolved in PBS at 5 mg/ml and filtered. 0.3×10^5 cells were plated in 96 well plates (Nunc) 24 h before addition of griseofulvin. Cells were then treated with different concentrations of griseofulvin for 22 h. Stock MTT solution (10 μl per 100 μl medium) was added to all wells, and plates were incubated additional 2 h at 37° C. Medium was discarded, 200 μl DMSO was added to each well and incubated for 20 minutes at 37° C. When all crystals were dissolved, the plates were read on a microtiterplate […] reader (Tecan, Crailsheim, Germany), using a test wavelength of 650 nm and a reference wavelength of 750 nm.

[12] = test system: BJ fibroblasts; assay: Colorimetric MTT cytotoxicity assay; type: cell-based; settings: Homo sapiens, Fibroblast, highest concentration 100 μM, read-out: growth inhibition
Experimental: as §4

[13] = test system: N115 mouse neuroblastoma cells; assay: Inhibition of centrosome coalescence and microtubule network in interphase cells (immunofluorescence); type: cell-based; settings: N115, 50 μM griseofulvin, 24 hours
Experimental: as §1
Cells grown on glass coverslips were fixed in −20° C. methanol/acetone (1:1) for 7 min. After blocking non-specific sites with 10% goat serum (Sigma)/PBS for 5 min, the cells were incubated with primary antibodies for 1 h. […] Immunostained cells were examined using a Zeiss Axiovert 200 M fluorescence microscope (Göttingen, Germany) and images were processed with Photoshop (Adobe, München, Germany) software. […]

[14] = test system: SCC114 cells; assay: Dynein and NuMA localization on mitotic spindles (immunofluorescence); type: cell-based, human; settings: SCC114, 100 μM griseofulvin, 24 hours
Experimental: as §2, with “The following fluorchrome-conjugated secondary antibodies were used: rabbit Alexa 488, 1:1000 (Molecular Probes, Invitrogen, Karlsruhe, Germany) and mouse Cy3, 1:400 (Jackson ImmunoResearch Laboratories, West Grove, PN). Coverslips were washed three times with PBS, rinsed shortly with water and post-fixed in absolute ethanol for 1 min. Airdryed Coverslips were embedded in Vectashield (Vector Laboratories, Burlingame, Calif.) or Fluoromount G (Southern Biotech, Birmingham, Ala.).” left out, “software. […]” for “software.”

COC1=CC(=O)C[C@@H](C)[C@]12Oc1c(Cl)c(OC)cc(OC)c1C2=O [griseofulvin]
percentage of metaphases multipolar ([1]; BJ fibroblasts, 20 μM griseofulvin): 3% | percentage of mitotic cells harbouring bipolar spindles ([1]; normal diploid fibroblasts, 100 μM griseofulvin): 87% | percentage of mitoses multipolar [2]: more than 85% | percentage of multipolar spindles ([3]; MCF7, 20 μM griseofulvin): 20% | percentage of mitoses multipolar ([3]; MCF7, 100 μM griseofulvin): more than 85% | percentage of multipolar spindles [4]: 53% | percentage of mitoses multipolar [5]: more than 85% | percentage of cells in G2/M [6]: 19.1±1.4% | percentage of cells arrested in G2/M phase [7]: 65.6±7.6% | percentage of cells arrested in G2/M phase [8]: 91.2±3.9% | percentage of cells in mitosis [9]: 5.5% | percentage of cells in mitosis [10]: 56.4% | IC50 at 22 h [11]: 35 µM | inhibition at 100 µM [12]: 25 ± 1% | percentage of interphase cells harbouring only short and convoluted microtubules [13]: 98% | percentage of interphase cells lacking clustering of centrioles into a single aggregate [13]: 68% | percentage of multipolar spindles labelled with antibody to NuMA [14]: 99.5±0.5% | percentage of multipolar spindles labelled with antibody to dynein [14]: 99±1%
